Source: ChEMBL document CHEMBL1833788, “Selective water-soluble gelatinase inhibitor prodrugs” (J Med Chem, 2011)

Tests used:
[1] = tested on: Mus musculus; experiment: Prodrug conversion in C57B1/6 mouse assessed as 4-[4-((Thiiran-2-yl)methylsulphonyl)phenoxy]benzamine level in plasma at […], iv administered as single bolus dose after 7 to 8 mins by reversed-phase HPLC/UV analysis; type: ADME, organism-based; settings: in vivo
[2] = tested on: Mus musculus; experiment: Prodrug conversion in C57B1/6 mouse assessed as 4-[4-((Thiiran-2-yl)methylsulphonyl)phenoxy]benzamine level in plasma at […], iv administered as single bolus dose after 11 to 12 mins by reversed-phase HPLC/UV analysis; type: ADME, organism-based; settings: in vivo, read-out: Drug metabolism
[3] = tested on: Mus musculus; experiment: Clearance in C57B1/6 mouse plasma assessed as parent compound level at […], iv administered as single bolus dose; type: ADME, organism-based; settings: in vivo
[4] = tested on: Mus musculus; experiment: Volume of distribution in C57B1/6 mouse plasma assessed as parent compound level at […], iv administered as single bolus dose; type: ADME, organism-based; settings: in vivo
[5] = tested on: Mus musculus; experiment: AUC (0 to infinity) in C57B1/6 mouse plasma assessed as 4-[4-((Thiiran-2-yl)methylsulphonyl)phenoxy]benzamine level at […], iv administered as single bolus dose; type: ADME, organism-based; settings: in vivo
[6] = tested on: Mus musculus; experiment: Prodrug conversion in C57B1/6 mouse assessed as N-(4-(4-((Thiiran-2-ylmethyl)sulfonyl)phenoxy)phenyl) hydroxylamine level in plasma at […], iv administered as single dose by reversed-phase LC/MS analysis; type: ADME, organism-based; settings: in vivo
[7] = tested on: Mus musculus; experiment: Prodrug conversion in C57B1/6 mouse assessed as N-(4-(4-((Thiiran-2-ylmethyl)sulfonyl)phenoxy)phenyl) hydroxylamine level in urine at […], iv administered as single dose by reversed-phase LC/MS analysis; type: ADME, organism-based; settings: in vivo
[8] = tested on: Mus musculus; experiment: Prodrug conversion in C57B1/6 mouse plasma assessed as parent compound level at […], iv administered as single bolus dose after 4 to 5 mins by reversed-phase LC/MS analysis; type: ADME, organism-based; settings: in vivo, read-out: Drug metabolism
[9] = tested on: Mus musculus; experiment: Prodrug conversion in C57B1/6 mouse assessed as N-(4-(4-(thiiran-2-ylmethylsulfonyl)phenoxy)phenyl)acetamide level in plasma at […], iv administered as single bolus dose after 2 to 3 mins by reversed-phase LC/MS analysis; settings: in vivo
[10] = tested on: Mus musculus; experiment: Prodrug conversion in C57B1/6 mouse assessed as N-(4-(4-(thiiran-2-ylmethylsulfonyl)phenoxy)phenyl)acetamide level in plasma at […], iv administered as single bolus dose after 62 to 66 mins by reversed-phase LC/MS analysis; settings: in vivo

SMILES: Cl.N=C(N)NCCC[C@H](N)C(=O)Nc1ccc(Oc2ccc(S(=O)(=O)CC3CS3)cc2)cc1 (stereo not given in full)
- Drug metabolism [1]: 4.5 µM
- concentration [2]: 2.45 µM
- CL [3]: 58.2 mL/min/kg
- Vd [4]: 0.0978 L/kg
- AUC [5]: 138 µM·min
- Drug metabolism [6]: Not Active
- Drug metabolism [7]: Not Active
- concentration [8]: 7.32 µM
- Drug metabolism [9]: 0.0354 µM
- Drug metabolism [10]: 0.0121 µM
